Source: patent publication US20250120981A1, “MRTX1133 PHARMACEUTICAL COMPOSITIONS” (MIRATI THERAPEUTICS, INC., priority 2023, published 2025)
Read-outs that look alike come from different tables or passages of the source.

Experiment: Pharmacokinetics in humans, MRTX1133 formulation, oral, single and multiple doses
Assay type: in vivo
Conditions: for increase in the mean exposure: dose increased from 200 mg BID to 400 mg BID; for concentration at 0 h / concentration at 0.5 h / concentration at 1 h / concentration at 1.5 h / concentration at 2 h / concentration at 4 h / concentration at 6 h / concentration at 8 h / concentration at 12 h / concentration at 24 h / AUC(0-t) / Cmax / Tmax / AUC0-inf / concentration at 3 h / concentration at 5 h / concentration at 48 h / concentration at 72 h / concentration at 96 h / half-life: human, plasma, po; for AUC0-inf: read-out: AUC0-inf, Geo Mean
Procedure: The pharmacokinetics [PK] of the MRTX1133 formulation after oral administration has been evaluated in 25 subjects across 3 escalating dose frequencies under fasting conditions (200 mg twice daily [BID], 400 mg BID, and 800 mg BID), as well as evaluation of 400 mg BID when administered with a low-fat meal (i.e., under fed conditions). The mean (+standard deviation) single-dose and multiple-dose pharmacokinetic profiles of the evaluated doses are presented in FIG. 9 and FIG. 10, respectively. Individual single- and multiple-dose PK profiles can be found in FIG. 11. For all figures, the X-axis represents nominal time of sample collection (hours [h]) and the Y-axis represents plasma concentration (ng/mL). Table 10 lists PK data following the oral administration of a single dose and multiple doses of MRTX1133 formulation by dose level and subject.

[1] = 200 mg, multiple oral doses of 200 mg BID, fasted, mean of subjects, read-out: Plasma concentration, Mean
[2] = 200 mg, single oral dose of 200 mg, fasted, mean of subjects, read-out: Plasma concentration, Mean
[3] = 400 mg, multiple oral doses of 400 mg BID with a low-fat meal, mean of subjects, read-out: Plasma concentration, Mean
[4] = 400 mg, multiple oral doses of 400 mg BID with a low-fat meal, mean of subjects
[5] = 400 mg, multiple oral doses of 400 mg BID, fasted, mean of subjects, read-out: Plasma concentration, Mean
[6] = 400 mg, single oral dose of 400 mg with a low-fat meal, mean of subjects, read-out: Plasma concentration, Mean
[7] = 400 mg, single oral dose of 400 mg with a low-fat meal, mean of subjects
[8] = 400 mg, single oral dose of 400 mg with a low-fat meal, individual subjects, read-out: Plasma concentration
[9] = 400 mg, single oral dose of 400 mg, fasted, mean of subjects, read-out: Plasma concentration, Mean
[10] = 400 mg, single oral dose of 400 mg, fasted, individual subjects, read-out: Plasma concentration
[11] = 800 mg, multiple oral doses of 800 mg BID, fasted, Mean of subjects, read-out: Plasma concentration

increase in the mean exposure (fasted, multiple doses): ~4.4 fold | increase in the mean exposure (fasted, single dose): approximately 1.8 fold | concentration at 0 h [1]: 5.33 ng/mL | concentration at 0.5 h [1]: 28.1 ng/mL | concentration at 1 h [1]: 31.1 ng/mL | concentration at 1.5 h [1]: 33.1 ng/mL | concentration at 2 h [1]: 20.1 ng/mL | concentration at 4 h [1]: 6.62 ng/mL | concentration at 6 h [1]: 3.85 ng/mL | concentration at 8 h [1]: 2.79 ng/mL | concentration at 12 h [1]: 2.46 ng/mL | concentration at 24 h (200 mg, multiple oral doses of 200 mg BID, fasted, individual subjects, sample taken after PM dose, read-out: Plasma concentration): 0.73 ng/mL | AUC(0-t) (200 mg, multiple oral doses of 200 mg BID, fasted, geometric mean of subjects, read-out: AUC0-12, Geo Mean): 93.1 ng·h/mL | AUC(0-t) (200 mg, multiple oral doses of 200 mg BID, fasted, geometric mean of subjects, read-out: AUC0-last, Geo Mean): 75.2 ng·h/mL | Cmax (200 mg, multiple oral doses of 200 mg BID, fasted, geometric mean of subjects, read-out: Cmax, Geo Mean): 36 ng/mL | Tmax (200 mg, multiple oral doses of 200 mg BID, fasted, median of subjects (footnote b), read-out: Tmax, Median): 1.5 h | concentration at 0.5 h [2]: 11.1 ng/mL | concentration at 1 h [2]: 44.3 ng/mL | concentration at 1.5 h [2]: 39 ng/mL | concentration at 2 h [2]: 39.3 ng/mL | concentration at 4 h [2]: 30.4 ng/mL | concentration at 6 h [2]: 11.9 ng/mL | concentration at 8 h [2]: 6.58 ng/mL | concentration at 12 h [2]: 4.44 ng/mL | concentration at 24 h [2]: 0.521 ng/mL | AUC(0-t) (200 mg, single oral dose of 200 mg, fasted, geometric mean of subjects, read-out: AUC0-12, Geo Mean): 148 ng·h/mL | AUC0-inf (200 mg, single oral dose of 200 mg, fasted, geometric mean of subjects): 165 ng·h/mL | AUC(0-t) (200 mg, single oral dose of 200 mg, fasted, geometric mean of subjects, read-out: AUC0-last, Geo Mean): 151 ng·h/mL | Cmax (200 mg, single oral dose of 200 mg, fasted, geometric mean of subjects, read-out: Cmax, Geo Mean): 59.8 ng/mL | Tmax (200 mg, single oral dose of 200 mg, fasted, median of subjects (footnote b), read-out: Tmax, Median): 1.5 h | concentration at 0 h [3]: 16.7 ng/mL | concentration at 1 h [3]: 138 ng/mL | concentration at 2 h [3]: 66.7 ng/mL | concentration at 3 h [4]: 55.1 ng/mL | concentration at 4 h [3]: 100 ng/mL | concentration at 5 h [4]: 39.8 ng/mL | concentration at 6 h [3]: 30 ng/mL | concentration at 8 h [3]: 23 ng/mL | concentration at 12 h [3]: 17.3 ng/mL | AUC(0-t) (400 mg, multiple oral doses of 400 mg BID with a low-fat meal, geometric mean of subjects, read-out: AUC0-12, Geo Mean): 310 ng·h/mL | AUC(0-t) (400 mg, multiple oral doses of 400 mg BID with a low-fat meal, geometric mean of subjects, read-out: AUC0-last, Geo Mean): 310 ng·h/mL | Cmax (400 mg, multiple oral doses of 400 mg BID with a low-fat meal, geometric mean of subjects, read-out: Cmax, Geo Mean): 102 ng/mL | Tmax (400 mg, multiple oral doses of 400 mg BID with a low-fat meal, median of subjects (footnote b), read-out: Tmax, Median): 1 h | concentration at 0 h [5]: 19.4 ng/mL | concentration at 0.5 h [5]: 72.7 ng/mL | concentration at 1 h [5]: 85.9 ng/mL | concentration at 1.5 h [5]: 64.6 ng/mL | concentration at 2 h [5]: 48.5 ng/mL | concentration at 4 h [5]: 77.3 ng/mL | concentration at 6 h [5]: 63.4 ng/mL | concentration at 8 h [5]: 40.3 ng/mL | concentration at 12 h [5]: 27.8 ng/mL | AUC(0-t) (400 mg, multiple oral doses of 400 mg BID, fasted, geometric mean of subjects, read-out: AUC0-12, Geo Mean): 410 ng·h/mL | AUC(0-t) (400 mg, multiple oral doses of 400 mg BID, fasted, geometric mean of subjects, read-out: AUC0-last, Geo Mean): 410 ng·h/mL | Cmax (400 mg, multiple oral doses of 400 mg BID, fasted, geometric mean of subjects, read-out: Cmax, Geo Mean): 111 ng/mL | Tmax (400 mg, multiple oral doses of 400 mg BID, fasted, median of subjects (footnote b), read-out: Tmax, Median): 1 h | concentration at 1 h [6]: 46.7 ng/mL | concentration at 2 h [6]: 43.6 ng/mL | concentration at 3 h [7]: 43.7 ng/mL | concentration at 4 h [6]: 59.7 ng/mL | concentration at 5 h [7]: 53.9 ng/mL | concentration at 6 h [6]: 43.6 ng/mL | concentration at 8 h [6]: 20.4 ng/mL | concentration at 12 h [6]: 11.3 ng/mL | concentration at 24 h [8]: 7.59 ng/mL | concentration at 24 h [6]: 7.59 ng/mL | concentration at 48 h [8]: 3.13 ng/mL | concentration at 48 h [6]: 3.13 ng/mL | concentration at 72 h [8]: 2.13 ng/mL | concentration at 72 h [6]: 2.13 ng/mL | concentration at 96 h [8]: 1.12 ng/mL | concentration at 96 h [6]: 1.12 ng/mL | AUC(0-t) (400 mg, single oral dose of 400 mg with a low-fat meal, geometric mean of subjects, read-out: AUC0-12, Geo Mean): 256 ng·h/mL | AUC0-inf (400 mg, single oral dose of 400 mg with a low-fat meal, geometric mean of subjects): 300 ng·h/mL | AUC(0-t) (400 mg, single oral dose of 400 mg with a low-fat meal, geometric mean of subjects, read-out: AUC0-last, Geo Mean): 277 ng·h/mL | Cmax (400 mg, single oral dose of 400 mg with a low-fat meal, geometric mean of subjects, read-out: Cmax, Geo Mean): 66.6 ng/mL | half-life (400 mg, single oral dose of 400 mg with a low-fat meal, geometric mean of subjects, read-out: T1/2, Geo Mean (converted)): 27.2 h | half-life (400 mg, single oral dose of 400 mg with a low-fat meal, individual subjects, read-out: T1/2 (converted)): 27.2 h | Tmax (400 mg, single oral dose of 400 mg with a low-fat meal, median of subjects (footnote b), read-out: Tmax, Median): 4 h | concentration at 0.5 h [9]: 42.7 ng/mL | concentration at 1 h [9]: 52.2 ng/mL | concentration at 1.5 h [9]: 48.9 ng/mL | concentration at 2 h [9]: 83.3 ng/mL | concentration at 4 h [9]: 64.4 ng/mL | concentration at 6 h [9]: 34.5 ng/mL | concentration at 8 h [9]: 23 ng/mL | concentration at 12 h [9]: 11.9 ng/mL | concentration at 24 h [10]: 3.75 ng/mL | concentration at 24 h [9]: 3.75 ng/mL | concentration at 48 h [10]: 1.46 ng/mL | concentration at 48 h [9]: 1.46 ng/mL | concentration at 72 h [10]: 0.872 ng/mL | concentration at 72 h [9]: 0.872 ng/mL | concentration at 96 h [10]: 0.538 ng/mL | concentration at 96 h [9]: 0.538 ng/mL | AUC(0-t) (400 mg, single oral dose of 400 mg, fasted, geometric mean of subjects, read-out: AUC0-12, Geo Mean): 263 ng·h/mL | AUC0-inf (400 mg, single oral dose of 400 mg, fasted, geometric mean of subjects): 304 ng·h/mL | AUC(0-t) (400 mg, single oral dose of 400 mg, fasted, geometric mean of subjects, read-out: AUC0-last, Geo Mean): 278 ng·h/mL | Cmax (400 mg, single oral dose of 400 mg, fasted, geometric mean of subjects, read-out: Cmax, Geo Mean): 86.2 ng/mL | half-life (400 mg, single oral dose of 400 mg, fasted, geometric mean of subjects, read-out: T1/2, Geo Mean (converted)): 33.3 h | half-life (400 mg, single oral dose of 400 mg, fasted, individual subjects, read-out: T1/2 (converted)): 33.3 h | Tmax (400 mg, single oral dose of 400 mg, fasted, median of subjects (footnote b), read-out: Tmax, Median): 2 h | concentration at 0 h [11]: 20.6 ng/mL | concentration at 0.5 h [11]: 97.2 ng/mL | concentration at 1 h [11]: 137 ng/mL | concentration at 1.5 h [11]: 107 ng/mL | concentration at 2 h [11]: 122 ng/mL | concentration at 4 h [11]: 138 ng/mL | concentration at 6 h [11]: 107 ng/mL | concentration at 8 h [11]: 56.2 ng/mL | concentration at 12 h [11]: 14.7 ng/mL | AUC(0-t) (800 mg, multiple oral doses of 800 mg BID, fasted, Geo Mean of subjects, read-out: AUC0-12): 347 ng·h/mL | AUC(0-t) (800 mg, multiple oral doses of 800 mg BID, fasted, Geo Mean of subjects, read-out: AUC0-last): 477 ng·h/mL | Cmax (800 mg, multiple oral doses of 800 mg BID, fasted, Geo Mean of subjects, read-out: Cmax): 99.5 ng/mL | Tmax (800 mg, multiple oral doses of 800 mg BID, fasted, Median of subjects, read-out: Tmax): 2 h
SMILES: C#Cc1c(F)ccc2cc(O)cc(-c3ncc4c(N5C[C@H]6CC[C@@H](C5)N6)nc(OC[C@@]56CCCN5C[C@H](F)C6)nc4c3F)c12 [MRTX1133, 4-(4-((1R,5S)-3,8-diazabicyclo[3.2.1]octan-3-yl)-8-fluoro-2-(((2R,7aS)-2-fluorohexahydro-1Hpyrrolizin-7a-yl)methoxy)pyrido[4,3-d]pyrimidin-7-yl)-5-ethynyl-6-fluoronaphthalen-2-ol]
change of mean single- and multiple-dose exposure (dose increased from 400 mg BID to 800 mg BID, fasted): did not change in a clinically meaningful manner
